These results are taken from patent publication US20260217708A1, “FUSED BENZAZEPINE DERIVATIVES FOR USE IN THE TREATMENT OF CANCER AND EPILEPSY” (UCB BIOPHARMA SRL, priority 2023, published 2026).

SMILES strings stand for the structures.

The target in test [1] is T1, system Xc^− (Homo sapiens, UniProt Q9UPY5).
T1 sequence (Q9UPY5 1-501): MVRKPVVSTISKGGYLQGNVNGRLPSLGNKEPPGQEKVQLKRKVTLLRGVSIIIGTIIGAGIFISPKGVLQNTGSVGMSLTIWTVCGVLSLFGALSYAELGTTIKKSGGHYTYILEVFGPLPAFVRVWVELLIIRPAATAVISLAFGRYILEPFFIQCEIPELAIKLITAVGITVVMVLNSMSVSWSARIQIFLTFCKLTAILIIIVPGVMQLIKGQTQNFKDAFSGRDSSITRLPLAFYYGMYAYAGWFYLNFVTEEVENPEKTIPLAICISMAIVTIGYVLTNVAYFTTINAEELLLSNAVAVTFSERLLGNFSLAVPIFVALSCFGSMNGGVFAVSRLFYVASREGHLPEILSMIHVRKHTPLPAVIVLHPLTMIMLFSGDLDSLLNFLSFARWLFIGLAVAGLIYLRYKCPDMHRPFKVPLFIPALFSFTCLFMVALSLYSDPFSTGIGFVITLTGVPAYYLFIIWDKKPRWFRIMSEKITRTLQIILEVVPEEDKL
T1 sequence (P08195 1-529 partner): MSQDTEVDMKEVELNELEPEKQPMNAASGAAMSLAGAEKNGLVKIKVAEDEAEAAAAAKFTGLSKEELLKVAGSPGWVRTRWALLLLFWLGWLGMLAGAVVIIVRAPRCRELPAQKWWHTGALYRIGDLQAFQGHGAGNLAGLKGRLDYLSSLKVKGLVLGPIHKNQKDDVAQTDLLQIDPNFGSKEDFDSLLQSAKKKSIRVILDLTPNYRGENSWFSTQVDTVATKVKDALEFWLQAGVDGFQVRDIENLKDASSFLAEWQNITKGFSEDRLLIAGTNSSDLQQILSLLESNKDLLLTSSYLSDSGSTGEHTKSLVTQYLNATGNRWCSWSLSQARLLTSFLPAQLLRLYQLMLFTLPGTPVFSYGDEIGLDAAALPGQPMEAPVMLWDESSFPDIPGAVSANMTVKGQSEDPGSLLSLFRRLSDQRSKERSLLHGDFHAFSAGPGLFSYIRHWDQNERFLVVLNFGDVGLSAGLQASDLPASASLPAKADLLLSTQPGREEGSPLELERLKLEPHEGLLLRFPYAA
As to the kind of experiment: Cystine-induced glutamate release assay. Type of test: cell-based. More on the design: endogenous in cells; host or cells: H4 cells. To be noted: H4 cells, sodium-free HEPES buffer, 50 μM L-Cystine, 2 hours, Amplex Red glutamate readout; read-out: pIC50 Cystine-induced glutamate release assay (converted). Summed up:
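IC50 (reported as pIC50) normalized to DMSO 1% and Erastin 50 μM controls, from Amplex Red fluorescence of glutamate exported into supernatant. H4 cells were washed into sodium-free buffer to exclude EAAT transport, then given compound with 50 μM L-cystine for 2 h in the incubator.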

In test [2] the target is T1, system Xc^−. The test can be described thus: [^14C]L-Cystine uptake assay. Type of test: cell-based. More on the design: endogenous in cells; host or cells: H4 cells. As to conditions: H4 cells, sodium-free HEPES buffer, 0.5 μM L-[14C]Cystine and 4.5 μM L-Cystine, 1 hour at 37° C.; read-out: pIC50 [^14C] L-Cystine uptake assay (converted). The gist of the method: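 Compound effect is given as pIC50, taken between controls of 1% DMSO and 50 μM Erastin. Human H4 cells were pretreated 15 min with compound in sodium-free buffer, then took up 0.5 μM [14C]cystine with 4.5 μM cold cystine for 1 hour at 37° C, read by scintillation proximity counting.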

In test [3] the target is T1, system Xc^−. To be noted: background statement, no data given; cited from earlier work.

`CC1C(=O)N(CC(=O)Nc2ccc(Cl)c(F)c2)c2ccnc(OC(F)F)c2-c2cccnc21` (centres unmarked) [#412, N-(4-chloro-3-fluoro-phenyl)-2-[3-(difluoromethoxy)-10-methyl-9-oxo-4,8,12-triazatricyclo[9.4.0.0^2,7]pentadeca-1(15),2,4,6,11,13-hexaen-8-yl]acetamide]: the IC50 on system Xc^− [1] and on system Xc^− [2] was 39.8 to 100 nM in each case.

`Cc1cc2c(c(F)n1)-c1ncc(F)cc1CC(=O)N2CC(=O)Nc1ccc(Cl)c(F)c1` [#417, N-(4-chloro-3-fluoro-phenyl)-2-(5,15-difluoro-13-methyl-9-oxo-3,10,14-triazatricyclo[9.4.0.0^2,7]pentadeca-1(11),2,4,6,12,14-hexaen-10-yl)acetamide]: the IC50 is 39.8 to 100 nM on system Xc^− [1] and 15.8 to 39.8 nM on system Xc^− [2].

On to `O=C(CN1C(=O)Cc2ncccc2-c2c1cc(N1CC3(C1)CC3(F)F)nc2F)Nc1ccc(C(F)F)cc1` [#421, 2-[5-(2,2-difluoro-5-azaspiro[2.3]hexan-5-yl)-3-fluoro-9-oxo-4,8,12-triazatricyclo[9.4.0.0^2,7]pentadeca-1(11),2(7),3,5,12,14-hexaen-8-yl]-N-[4-(difluoromethyl)phenyl]acetamide], for which the IC50 on system Xc^− [1] and on system Xc^− [2] was 15.8 to 39.8 nM each time.

On to `O=C(O)c1cc(/N=N/c2ccc(S(=O)(=O)Nc3ccccn3)cc2)ccc1O` [Sulfasalazine], for which, at system Xc^− [3], the “inhibition of the System Xc− antiporter” value is recorded as “non-selective inhibitor” and the “potency on human System Xc− function” value is reported as “low”.
